# From patent US9273304B2, “Inactivation method” (Thermo Fisher Scientific Baltics UAB, priority 2006, dated 2016)
# Columns and labels:
# [1] = tested on: CFTR gene / insulin gene, human DNA; assay: PCR comparison with commercial hot-start Taq DNA polymerases (sensitivity, Fast PCR, extension time); type: biochemical
# Protocol: Sets of PCR reactions were carried out in the Mastercycler (Eppendorf). The reactions were carried out with the following amounts of DNA polymerases: 0.3125 activity units, 0.625 activity units, 1.25 activity units, and 2.5 activity units. These sets of PCR were performed under conditions optimal for each DNA polymerase. The buffers for both the modified DNA polymerase of the current invention and the unmodified DNA polymerase were described in the Examples 7 and 11, while the buffers for the commercial DNA polymerases were those recommended by the vendors. All experiments were performed in the presence of 0.2 mM dNTP, 0.5 μM of each primers and human DNA (100 ng/50 μl). The PCR primers for amplification of the CFTR gene were described in the Example 8.
# The PCR components were mixed at room temperature and the reaction was carried using the following cycling profile: 95° C.—4 min; (95° C.—0.5 min, 50° C.—0.5 min, 72° C.—1 min)—40 cycles; 72° C.—7 min, with the exception of the experiments with the HotStarTaq DNA polymerase, were 15 min pre-incubation at 95° C. was used, as recommended by the vendor.
# Amplifications and analysis of reaction products were performed as described in the Example 12. The 1.25 activity units of each polymerase were used in the PCR. The following amounts of human DNA were used as templates in the PCR: 0.1 ng, 1 ng, 10 ng, and 100 ng.
# Amplifications and analysis of PCR products were performed as described in the Example 12. The 1.25 activity units of each polymerase were used in the PCR. The set of PCR reactions was carried out at 20, 25, 30, 35 and 40 thermal cycles. respectively.
# Sets of PCR reactions were carried out in the GeneAmp® PCR System 9700 (Applied Biosystems). The reactions were carried out with 1 activity unit of DNA polymerases. These sets of PCR reactions were performed in 20 μl of the buffers optimal for each. DNA polymerase. The buffers for the modified Tag polymerase and the unmodified Taq DNA polymerases were described in the Examples 7 and 11, while the buffers for the commercial DNA polymerases were those recommended by the vendors. The following commercial DNA polymerases were chosen for comparison: the FastStart Taq DNA polymerase (Roche), the AmpliTaq Gold DNA polymerase (Applied Biosystems), and the HotStarTaq DNA polymerase (Qiagen). All experiments were performed in the presence of 0.2 mM dNTP, 0.5 μM of each PCR primer and human DNA (40 ng/20 μl). The following primers were used for amplification of the insulin gene: […]
# The PCR components were mixed in thin-walled PCR tubes on ice and the 500 bp amplicon was generated using the following reaction profile: 95° C.—30 s; (95° C.—0 s, 62° C.—12 s)—30 cycles; 72° C.—10 s.
# Amplifications and analysis of PCR products were performed as described in the Example 12. […]
# Taq DNA polymerase = Taq DNA polymerase (Thermus aquaticus, UniProt P19821); assay: 5′-3′ exonuclease activity: cleavage of 5′-labelled oligonucleotide duplexes at 37° C.; type: biochemical; conditions: 4 hours, with or without dNTPs, FIG. 9, part B
# Taq DNA polymerase, sequence (P19821 whole entry): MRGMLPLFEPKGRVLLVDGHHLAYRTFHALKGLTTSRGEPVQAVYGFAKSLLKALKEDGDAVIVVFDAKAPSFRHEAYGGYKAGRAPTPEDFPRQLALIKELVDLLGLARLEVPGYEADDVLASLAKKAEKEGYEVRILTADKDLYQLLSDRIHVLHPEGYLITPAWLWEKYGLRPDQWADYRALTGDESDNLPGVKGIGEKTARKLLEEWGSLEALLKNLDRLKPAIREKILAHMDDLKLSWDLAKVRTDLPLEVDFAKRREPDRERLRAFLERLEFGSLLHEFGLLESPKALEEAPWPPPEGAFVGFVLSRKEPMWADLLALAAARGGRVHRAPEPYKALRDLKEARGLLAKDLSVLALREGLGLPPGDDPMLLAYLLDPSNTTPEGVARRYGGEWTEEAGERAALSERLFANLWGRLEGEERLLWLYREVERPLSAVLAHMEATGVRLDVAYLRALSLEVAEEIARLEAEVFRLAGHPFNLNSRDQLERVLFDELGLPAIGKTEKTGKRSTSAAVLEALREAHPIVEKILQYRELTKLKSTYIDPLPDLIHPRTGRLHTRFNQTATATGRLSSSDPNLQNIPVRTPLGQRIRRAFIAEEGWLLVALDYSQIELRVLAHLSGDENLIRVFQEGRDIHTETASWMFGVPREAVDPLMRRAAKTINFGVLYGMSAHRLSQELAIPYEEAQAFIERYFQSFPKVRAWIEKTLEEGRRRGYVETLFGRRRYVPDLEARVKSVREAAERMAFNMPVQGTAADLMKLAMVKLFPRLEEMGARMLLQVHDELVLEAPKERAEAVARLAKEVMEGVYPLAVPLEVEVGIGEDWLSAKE
# Protocol: The exonuclease activity was determined using the following labeled complementary oligonucleotides: [SEQ ID NO: 3] 5′-[…]-3′ and [SEQ ID NO: 4] 5′-[…]-3′. Equal amounts (10 units) of the unmodified enzyme and the modified enzyme were incubated with the oligonucleotide duplexes for 4 hours at 37° C. in 10 μl of reaction buffer. Activity of the unmodified Taq DNA polymerase was tested in the following buffer: 75 mM Tris-HCl (pH 8.8 at 25° C.), 20 mM (NH4)SO4, 0.01% Tween20, and 2 mM MgCl2, while the buffer composition to test the modified Taq DNA polymerase was the following: 20 mM Tris-HCl (pH 8.3 at 25° C.), 20 mM KCl, 5 mM (NH4)SO4, and 2 mM MgCl2. Both reaction mixtures were tested either in the presence or in the absence of dNTPs.
# Reactions were terminated by addition of 5 μl of a “stop” solution (95% (v/v) formamide and 0.01% bromophenol blue). After heating at 95° C. for 2 minutes, the samples were cooled in ice, and then they were loaded onto 15% denaturing acrylamide gel (29:1 acrylamide/bisacrylamide). Electrophoresis was performed in 89 mM Tris-borate (pH8.3 at 37° C.) supplemented with 2 mM EDTA for one hour at ˜50 V/cm. After electrophoresis, the gels were fixed in 10% acetic acid and dried. The gels were analyzed using Cyclone Storage Phosphor System and OptiQuant™ Image Analysis Software.
substance,measurement,setting,value
"Taq DNA polymerase modified with N-etoxycarbonyl-2,3-dimethylmaleinimide: Recombinant Taq DNA polymerase reversibly inactivated by reaction with N-ethoxycarbonyl-2,3-dimethylmaleinimide in aqueous solution (preferred molar ratio 1/110)","performance in the “Fast PCR” application, compared with DNA polymerases from other vendors",[1]; FIG. 14,superior performance
same,"primer extension time, compared with DNA polymerases from other vendors",[1]; FIG. 15,shorter
same,"PCR sensitivity regarding the enzyme concentration, compared with DNA polymerases from other vendors","[1]; versus HotStarTaq, AmpliTaq Gold, FastStart Taq, FIG. 11",higher sensitivity
same,"PCR sensitivity regarding the target DNA concentration, compared with DNA polymerases from other vendors","[1]; versus HotStarTaq, AmpliTaq Gold, FastStart Taq, FIG. 12",higher sensitivity
same,5′-3′ exonuclease activity,Taq DNA polymerase,practically devoid of exonuclease activity
